The subject of data set [1] is passive cutaneous anaphylaxis (PCA). Kind of data set: Inhibitory effects on passive cutaneous anaphylaxis (PCA). The data set is classed as in vivo, male SD rat. Particulars: 100 mg/kg orally one hour prior to the antigen challenge, rat; for inhibition in vivo at 100 mg/kg: po, 1 h, read-out: P C A (p.o), degree of inhibition. The procedure: A male SD rat weighing about 300 g was used, whose hair on the back had been shaved with an electric clipper. The back skin was passively sensitized by intradermal injection of 0.1 ml of anti-OA mouse serum (IgE like antibody) which had been diluted to three concentration levels. 4 Hours later, the rat was challenged by intravenous injection of an antigen solution of 2 ml/kg containing OA (1 mg/ml) and Evans blue (0.5 mg/ml). 30 Minutes after the antigen challenge, the rat was decapitated and exsanguinated. Then, the skin was reflected, and the area of blue spots was measured in milimeters by multiplying the longer diameter by the shorter diameter. […] The degree of inhibition of the test compound is expressed by the following notations.
±: 0-25% inhibition with no significant difference from the control
±: 25-50% inhibition with a significant difference from the control
++: 50-75% inhibition with a significant difference from the control
+++: 75-100% inhibition with a significant difference from the control
Each test pharmaceutical compound was suspended in a 0.2% carboxymethylcellulose solution and administered orally at a rate of 100 mg/kg one hour prior to the antigen challenge. Disodium cromoglycate which was known as an anti-allergic drug was employed as a control or reference substance.

For a further data set, the system named is peritoneal cells. Kind of data set: Inhibitory effects on histamine release (sensitized rat peritoneal cells, OA challenge). Format: cell-based, male Sprague-Dawley (SD) rat. The settings on record: 10 min at 37° C., OA added simultaneously; for minimal effective concentration: 10 min, read-out: Inhibition of Histamine release (lowest effective concentration to inhibit the release of histamine). The procedure: An anti-ovalbumin (OA) mouse serum (IgE like antibody, PCA titer; 1:400-1:800) was diluted 20 times with physiological saline. A male Sprague-Dawley (SD) rat weighing 300-400 g was passively sensitized by intraperitoneal administration of 5 ml of the diluted serum. 48 Hours later, the rat was decapitated and exsanguinated. 10 ml of Tyrode's solution containing 5 units/ml of heparin was then injected into the peritoneal cavity of the rat. After mixing the solution by gentle massage for 60 seconds, the fluid in the peritoneal cavity was collected and then centrifuged for 5 minutes at 120×g to harvest peritoneal cells. The peritoneal cells were suspended in Tyrode's solution so as to adjust the concentration of 10^6 cells/ml. After preincubating 1.6 ml of the cell suspension for 4 minutes at 37° C., 0.2 ml of each test compound solution and 0.2 ml of OA solution (100 μg/ml) were added simultaneously and thereafter incubated for 10 minutes at 37° C. The reaction was terminated by ice-cooling the mixture, and the thus incubated solution was centrifuged for 5 minutes at 670×g to divide the same into a cell pellet and a supernatant liquid phase. The histamine content in each of the phases was determined by the fluorometric method of Grant et al*. Each tested pharmaceutical compound was used by dissolving it in Tyrode's solution prior to its use.
*Grant, J. A., Settle, L., Whorton, E. B. and Dupree, E., Complement-mediated releast of histamine from human basophils: II. Biochemical characterization of the reaction, J. Immunol., 117, 450 (1976)
The results of tests (1) and (2) are shown in Table 1 in which each figure in the "Inhibition of Histamine Release" column denotes the lowest effective concentration to inhibit the release of histamine.

Data set [2] can be described thus: Acute toxic test (LD50, up-down method). The settings on record: in vivo; oral, male SD rat, 72 hours after administration. Here is the method:
Each of the compounds shown in Table 2 was suspended in a 0.5% carboxymethylcellulose solution and administered orally to a male SD rat (5 weeks old). Upon the lapse of 72 hours after the administration, the LD50 value was determined by the up-down method.

These results are taken from US4290954A, “Tetrahydroxanthone derivatives” (Kowa Company Limited, priority 1978, dated 1981).

In the case of `CC1CCc2oc3ccc(C(=O)Nc4ccccc4C(=O)O)cc3c(=O)c2C1` (stereo not drawn), the inhibition in vivo at 100 mg/kg in data set [1] lay within 0 to 25%. In addition, the minimal effective concentration in the data set with peritoneal cells stood at 0.3 µg/mL.
As to `O=C(OC1CCc2oc3ccc(-c4nnn[nH]4)cc3c(=O)c2C1)c1ccccc1` (stereo not drawn), the minimal effective concentration in the data set with peritoneal cells turned out to be 10 µg/mL.
As to `CC(C)(C)C1CCc2oc3ccc(C(=O)Nc4nnn[nH]4)cc3c(=O)c2C1` (stereo not drawn) [2-CONHTz 7-tert.Bu, 7-(t-butyl)-5,6,7,8-tetrahydro-N-(5'-tetrazolyl)-9-oxo-xanthene-2-carboxylic acid amide], the inhibition in vivo at 100 mg/kg in data set [1] was in the range of 0 to 25%. The minimal effective concentration in the data set with peritoneal cells worked out at 1 µg/mL.
For `Cc1cc(C(=O)O)cc2c(=O)c3c(oc12)CCCC3` [2-COOH 4-CH3, 4-methyl-5,6,7,8-tetrahydro-9-oxo-xanthene-2-carboxylic acid], the inhibition in vivo at 100 mg/kg in data set [1] was 50 to 75%.
In the case of `CC1CCc2oc3ccc(C(=O)O)cc3c(=O)c2C1` (stereo not drawn) [2-COOH 7-CH3, 7-methyl-5,6,7,8-tetrahydro-9-oxo-xanthene-2-carboxylic acid], in the data set with peritoneal cells, the minimal effective concentration amounted to 0.3 µg/mL.
`CC(C)(C)C1CCc2oc3ccc(C(=O)O)cc3c(=O)c2C1` (stereo not drawn) [2-COOH 7-tert.Bu, 7-(t-butyl)-5,6,7,8-tetrahydro-9-oxo-xanthene-2-carboxylic acid]: in data set [1], the inhibition in vivo at 100 mg/kg was in the range of 75 to 100%. The minimal effective concentration with peritoneal cells amounted to 0.3 µg/mL.
Turning to `Cc1cc(-c2nnn[nH]2)cc2c(=O)c3c(oc12)CCCC3` [2-Tz 4-CH3, 4-methyl-5,6,7,8-tetrahydro-2-(5'-tetrazolyl)-9-xanthone], in the data set on peritoneal cells, the minimal effective concentration worked out at 0.1 µg/mL.
Consider `CC1CCc2oc3ccc(-c4nn[nH]n4)cc3c(=O)c2C1` (stereo not drawn) [2-Tz 7-CH3, 2-methyl-1,2,3,4-tetrahydro-7-(5'tetrazolyl)-9-xanthone], for which, in data set [1], the “P C A (p.o), degree of inhibition” value is on record as “± (0-25% inhibition with no significant difference from the control)”. The “Inhibition of Histamine release (lowest effective concentration to inhibit the release of histamine)” value in the data set on peritoneal cells came to 0.01 µg/mL.
On to `O=C(O)C1CCc2oc3ccc(-c4nnn[nH]4)cc3c(=O)c2C1` (stereo not drawn) [2-Tz 7-COOH], for which the minimal effective concentration with peritoneal cells was 0.01 µg/mL.
Regarding `CC(C)(C)C1CCc2oc3ccc(-c4nnn[nH]4)cc3c(=O)c2C1` (stereo not drawn) [2-Tz 7-tert.Bu, 2-(t-butyl)-1,2,3,4-tetrahydro-7-(5'-tetrazolyl)-9-xanthone], the minimal effective concentration with peritoneal cells is 0.1 µg/mL.
Turning to `Cc1ccc2c(=O)c3c(oc2c1)CCC(C(=O)Nc1nnn[nH]1)C3` (stereo not drawn) [3-CH3 7-CONHTz], in data set [1], the inhibition in vivo at 100 mg/kg lay in the range of 0 to 25%. Moreover, the minimal effective concentration in the data set with peritoneal cells amounted to 3 µg/mL.
In the case of `Cc1ccc2c(=O)c3c(oc2c1)CCC(c1nnn[nH]1)C3` (stereo not drawn) [3-CH3 7-Tz, 6-Methyl-1,2,3,4-tetrahydro-2-(5'-tetrazolyl)-9-oxo-xanthene], the minimal effective concentration in the data set on peritoneal cells was found to be 1 µg/mL.
Regarding `CC1CCc2oc3cc(-c4nnn[nH]4)ccc3c(=O)c2C1` (stereo not drawn) [3-Tz 7-CH3, 2-methyl-1,2,3,4-tetrahydro-6-(5'-tetrazolyl)-9-xanthone], in data set [1], the inhibition in vivo at 100 mg/kg was in the range of 50 to 75%.
For the compound `O=C(O)c1cc(=O)c2c(OCC(O)COc3cccc4oc(C(=O)O)cc(=O)c34)cccc2o1` [Disodium cromoglycate, reference compound], the inhibition in vivo at 100 mg/kg in data set [1] lay in the range of 0 to 25%. In addition, the minimal effective concentration in the data set on peritoneal cells amounted to 3 µg/mL.
Regarding `O=C(Nc1nnn[nH]1)c1ccc2oc3c(c(=O)c2c1)CCCC3` [Example 2-CONHTz, 5,6,7,8-tetrahydro-N-(5'-tetrazolyl)-9-oxo-xanthene-2-carboxylic acid amide], the minimal effective concentration with peritoneal cells worked out at 0.1 µg/mL.
One may read the LD50 as the dose expected to kill half of the subjects tested. As for `O=C(O)c1ccc2oc3c(c(=O)c2c1)CCCC3` [Example 2-COOH, 5,6,7,8-Tetrahydro-9-oxo-xanthene-2-carboxylic acid], the minimal effective concentration with peritoneal cells was 10 µg/mL. Besides, the LD50 at 72 h in data set [2] is more than 4000 mg/kg.
`O=c1c2c(oc3ccc(-c4nnn[nH]4)cc13)CCCC2` [Example 2-Tz, 1,2,3,4-Tetrahydro-7-(5'-tetrazolyl)-9-xanthone]: in the data set on peritoneal cells, the minimal effective concentration is 0.01 µg/mL. In data set [2], this compound yielded a 50% lethal dose (LD50) at 72 h of more than 4000 mg/kg.
Take `O=C(O)c1ccc2c(=O)c3c(oc2c1)CCCC3` [Example 3-COOH, 5,6,7,8-tetrahydro-9-oxo-xanthene-3-carboxylic acid]: in the data set with peritoneal cells, the minimal effective concentration is 10 µg/mL.
With `O=c1c2c(oc3cc(-c4nnn[nH]4)ccc13)CCCC2` [Example 3-Tz, 5,6,7,8-tetrahydro-3-(5'-tetrazolyl)-9-xanthone], the inhibition in vivo at 100 mg/kg in data set [1] is 50 to 75%. Also, the minimal effective concentration in the data set on peritoneal cells stood at 0.3 µg/mL.
Take `Cc1ccc2c(=O)c3c(oc2c1)CCC(C(=O)Nc1ccccc1C(=O)O)C3` (stereo not drawn) [drawing 19]: the minimal effective concentration with peritoneal cells came out at 3 µg/mL.
Turning to `O=C(Nc1ccccc1C(=O)O)c1ccc2oc3c(c(=O)c2c1)CCCC3` [drawing 20], the “P C A (p.o), degree of inhibition” value in data set [1] was “+ +”. Besides, the minimal effective concentration in the data set on peritoneal cells was determined as 1 µg/mL.
In data set [2], `O=C(Nc1ccccc1C(=O)O)c1ccc2oc3c(c(=O)c2c1)CCCC3` [drawing 25] showed an LD50 at 72 h of more than 4000 mg/kg.
Regarding `Cc1ccc2c(=O)c3c(oc2c1)CCC(C(=O)Nc1ccccc1C(=O)O)C3` (stereo not drawn) [drawing 26], the 50% lethal dose (LD50) at 72 h in data set [2] is more than 4000 mg/kg.
